Measured values published in ChEMBL document CHEMBL2413072, “Synthesis and in vitro anticancer studies of novel C-2 arylidene congeners of lantadenes” (2013).

What was measured:
Format in all cases: functional
K562 [1] = test: Growth inhibition of human K562 cells assessed as cell growth at 10 uM by sulforhodamine B assay; settings: read-out: Activity
T47D = test: Growth inhibition of human T47D cells assessed as growth inhibition at 10 uM by sulforhodamine B assay; settings: read-out: GI
BT-549 = test: Growth inhibition of human BT549 cells assessed as growth inhibition at 10 uM by sulforhodamine B assay; settings: read-out: GI
MDA-MB-231 [2] = test: Growth inhibition of human MDA-MB-231 cells assessed as growth inhibition at 10 uM by sulforhodamine B assay; settings: read-out: GI
MCF7 = test: Growth inhibition of human MCF7 cells assessed as growth inhibition at 10 uM by sulforhodamine B assay; settings: read-out: GI
PC-3 [3] = test: Growth inhibition of human PC3 cells assessed as growth inhibition at 10 uM by sulforhodamine B assay; settings: read-out: GI
CAKI-1 [4] = test: Growth inhibition of human CAKI-1 cells assessed as growth inhibition at 10 uM by sulforhodamine B assay; settings: read-out: GI
OVCAR-4 [5] = test: Growth inhibition of human OVCAR4 cells assessed as growth inhibition at 10 uM by sulforhodamine B assay; settings: read-out: GI
UACC-257 = test: Growth inhibition of human UACC257 cells assessed as growth inhibition at 10 uM by sulforhodamine B assay; settings: read-out: GI
SK-MEL-5 [6] = test: Growth inhibition of human SK-MEL-5 cells assessed as growth inhibition at 10 uM by sulforhodamine B assay; settings: read-out: GI
SK-MEL-2 = test: Growth inhibition of human SK-MEL-2 cells assessed as growth inhibition at 10 uM by sulforhodamine B assay; settings: read-out: GI
Malme-3M [7] = test: Growth inhibition of human MALME-3M cells assessed as growth inhibition at 10 uM by sulforhodamine B assay; settings: read-out: GI
U-251 = test: Growth inhibition of human U251 cells assessed as growth inhibition at 10 uM by sulforhodamine B assay; settings: read-out: GI
SNB-75 = test: Growth inhibition of human SNB75 cells assessed as growth inhibition at 10 uM by sulforhodamine B assay; settings: read-out: GI
SNB-19 = test: Growth inhibition of human SNB19 cells assessed as growth inhibition at 10 uM by sulforhodamine B assay; settings: read-out: GI
SF-539 [8] = test: Growth inhibition of human SF539 cells assessed as growth inhibition at 10 uM by sulforhodamine B assay; settings: read-out: GI
SW-620 [9] = test: Growth inhibition of human SW620 cells assessed as growth inhibition at 10 uM by sulforhodamine B assay; settings: read-out: GI
KM12 [10] = test: Growth inhibition of human KM12 cells assessed as growth inhibition at 10 uM by sulforhodamine B assay; settings: read-out: GI
HT-29 = test: Growth inhibition of human HT-29 cells assessed as growth inhibition at 10 uM by sulforhodamine B assay; settings: read-out: GI
[11] = Growth inhibition of human HCC2998 cells assessed as growth inhibition at 10 uM by sulforhodamine B assay; settings: HCC 2998, read-out: GI
NCI-H522 = test: Growth inhibition of human NCI-H522 cells assessed as growth inhibition at 10 uM by sulforhodamine B assay; settings: read-out: GI
HOP-92 [12] = test: Growth inhibition of human HOP92 cells assessed as growth inhibition at 10 uM by sulforhodamine B assay; settings: read-out: GI
HOP-62 = test: Growth inhibition of human HOP62 cells assessed as growth inhibition at 10 uM by sulforhodamine B assay; settings: read-out: GI
A549 [13] = test: Growth inhibition of human A549/ATCC cells assessed as growth inhibition at 10 uM by sulforhodamine B assay; settings: read-out: GI
SR = test: Growth inhibition of human SR cells assessed as growth inhibition at 10 uM by sulforhodamine B assay; settings: read-out: GI
K562 [14] = test: Growth inhibition of human K562 cells assessed as growth inhibition at 10 uM by sulforhodamine B assay; settings: read-out: GI
[15] = Growth inhibition of human Hs 578T cells assessed as cell growth at 10 uM by sulforhodamine B assay; settings: read-out: Activity
MDA-MB-231 [16] = test: Growth inhibition of human MDA-MB-231 cells assessed as cell growth at 10 uM by sulforhodamine B assay; settings: read-out: Activity
DU-145 = test: Growth inhibition of human DU145 cells assessed as cell growth at 10 uM by sulforhodamine B assay; settings: read-out: Activity
PC-3 [17] = test: Growth inhibition of human PC3 cells assessed as cell growth at 10 uM by sulforhodamine B assay; settings: read-out: Activity
UO-31 = test: Growth inhibition of human UO31 cells assessed as cell growth at 10 uM by sulforhodamine B assay; settings: read-out: Activity
TK-10 = test: Growth inhibition of human TK10 cells assessed as cell growth at 10 uM by sulforhodamine B assay; settings: read-out: Activity
SN12C = test: Growth inhibition of human SN12C cells assessed as cell growth at 10 uM by sulforhodamine B assay; settings: read-out: Activity
CAKI-1 [18] = test: Growth inhibition of human CAKI-1 cells assessed as cell growth at 10 uM by sulforhodamine B assay; settings: read-out: Activity
SK-OV-3 = test: Growth inhibition of human SKOV3 cells assessed as cell growth at 10 uM by sulforhodamine B assay; settings: read-out: Activity
[19] = Growth inhibition of human NCI-ADR-RES cells assessed as cell growth at 10 uM by sulforhodamine B assay; settings: read-out: Activity
OVCAR-8 = test: Growth inhibition of human OVCAR8 cells assessed as cell growth at 10 uM by sulforhodamine B assay; settings: read-out: Activity
OVCAR-4 [20] = test: Growth inhibition of human OVCAR4 cells assessed as cell growth at 10 uM by sulforhodamine B assay; settings: read-out: Activity
IGROV-1 = test: Growth inhibition of human IGROV1 cells assessed as cell growth at 10 uM by sulforhodamine B assay; settings: read-out: Activity
SK-MEL-5 [21] = test: Growth inhibition of human SK-MEL-5 cells assessed as cell growth at 10 uM by sulforhodamine B assay; settings: read-out: Activity
Malme-3M [22] = test: Growth inhibition of human MALME-3M cells assessed as cell growth at 10 uM by sulforhodamine B assay; settings: read-out: Activity
SF-539 [23] = test: Growth inhibition of human SF539 cells assessed as cell growth at 10 uM by sulforhodamine B assay; settings: read-out: Activity
SF-268 = test: Growth inhibition of human SF268 cells assessed as cell growth at 10 uM by sulforhodamine B assay; settings: read-out: Activity
SW-620 [24] = test: Growth inhibition of human SW620 cells assessed as cell growth at 10 uM by sulforhodamine B assay; settings: read-out: Activity
KM12 [25] = test: Growth inhibition of human KM12 cells assessed as cell growth at 10 uM by sulforhodamine B assay; settings: read-out: Activity
COLO 205 = test: Growth inhibition of human COLO205 cells assessed as cell growth at 10 uM by sulforhodamine B assay; settings: read-out: Activity
HOP-92 [26] = test: Growth inhibition of human HOP92 cells assessed as cell growth at 10 uM by sulforhodamine B assay; settings: read-out: Activity
[27] = Growth inhibition of human EKVX cells assessed as cell growth at 10 uM by sulforhodamine B assay; settings: read-out: Activity
A549 [28] = test: Growth inhibition of human A549/ATCC cells assessed as cell growth at 10 uM by sulforhodamine B assay; settings: read-out: Activity
RPMI-8226 = test: Growth inhibition of human RPMI8226 cells assessed as cell growth at 10 uM by sulforhodamine B assay; settings: read-out: Activity

CC(C)=CC(=O)O[C@@H]1CC(C)(C)C[C@H]2C3=CC[C@@H]4[C@@]5(C)CCC(=O)C(C)(C)[C@@H]5CC[C@@]4(C)[C@]3(C)CC[C@@]12C(=O)O
growth at 10 µM (K562 [1]): 45%
inhibition of growth at 10 µM (T47D): 38.4%
inhibition of growth at 10 µM (BT-549): 30.4%
inhibition of growth at 10 µM (MDA-MB-231 [2]): 28.5%
inhibition of growth at 10 µM (MCF7): 50.7%
inhibition of growth at 10 µM (PC-3 [3]): 63.1%
inhibition of growth at 10 µM (CAKI-1 [4]): 53.2%
inhibition of growth at 10 µM (OVCAR-4 [5]): 28.7%
inhibition of growth at 10 µM (UACC-257): 26.1%
inhibition of growth at 10 µM (SK-MEL-5 [6]): 52.1%
inhibition of growth at 10 µM (SK-MEL-2): 21.8%
inhibition of growth at 10 µM (Malme-3M [7]): 14.6%
inhibition of growth at 10 µM (U-251): 61.8%
inhibition of growth at 10 µM (SNB-75): 30%
inhibition of growth at 10 µM (SNB-19): 42.7%
inhibition of growth at 10 µM (SF-539 [8]): 35%
inhibition of growth at 10 µM (SW-620 [9]): 37.3%
inhibition of growth at 10 µM (KM12 [10]): 69.6%
inhibition of growth at 10 µM (HT-29): 42.7%
inhibition of growth at 10 µM [11]: 47.2%
inhibition of growth at 10 µM (NCI-H522): 42.7%
inhibition of growth at 10 µM (HOP-92 [12]): 71.6%
inhibition of growth at 10 µM (HOP-62): 39.8%
inhibition of growth at 10 µM (A549 [13]): 77.8%
inhibition of growth at 10 µM (SR): 47.9%
inhibition of growth at 10 µM (K562 [14]): 55%
growth at 10 µM [15]: 79.6%
growth at 10 µM (MDA-MB-231 [16]): 71.5%
growth at 10 µM (DU-145): 74.5%
growth at 10 µM (PC-3 [17]): 36.9%
growth at 10 µM (UO-31): 42%
growth at 10 µM (TK-10): 78.1%
growth at 10 µM (SN12C): 42.6%
growth at 10 µM (CAKI-1 [18]): 46.8%
growth at 10 µM (SK-OV-3): 95.4%
growth at 10 µM [19]: 60%
growth at 10 µM (OVCAR-8): 55.1%
growth at 10 µM (OVCAR-4 [20]): 71.3%
growth at 10 µM (IGROV-1): 62.3%
growth at 10 µM (SK-MEL-5 [21]): 47.9%
growth at 10 µM (Malme-3M [22]): 85.4%
growth at 10 µM (SF-539 [23]): 65%
growth at 10 µM (SF-268): 73%
growth at 10 µM (SW-620 [24]): 62.7%
growth at 10 µM (KM12 [25]): 30.4%
growth at 10 µM (COLO 205): 71%
growth at 10 µM (HOP-92 [26]): 28.4%
growth at 10 µM [27]: 41.2%
growth at 10 µM (A549 [28]): 22.2%
growth at 10 µM (RPMI-8226): 19.6%
